Consider 15 compounds from PubChem BioAssay (NCI).

“And” between values parts separate entries of the source, which are not always exact repeats. Equal entries are not always repeated.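 Cultured in 96-well plates, cells were exposed to test compound for 48 hours across five concentrations. Definition used: TGI = concentration required for complete inhibition of growth.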 Bounds are passed on as bounds.

Some test systems named below: DLD-1 colon; HOP-18 NSCLC; KM20L2 colon; LXFL 529 NSCLC; RXF-631 renal; XF 498 CNS; DMS 114 small cell lung; MDA-N; T-47D breast; P388 leukemia; P388/ADR leukemia; SN12K1 renal.
Holding throughout (assay): NCI tumour cell line growth inhibition, 48 h

Turning to `O=C1CCCC[C@H]1[C@H]1CCC[C@@H]([C@H]2CCCCC2=O)C1=O`, the TGI in the experiment with DLD-1 colon, in the experiment with HOP-18 NSCLC, with KM20L2 colon, in the experiment with LXFL 529 NSCLC, with RXF-631 renal and in the experiment on XF 498 CNS was greater than 100 µM each time.
Take `C=CC/C=C/C/C=C/CCCCCCCc1cccc(O)c1C(=O)O`: the TGI is greater than 100 µM in the experiment with DLD-1 colon; greater than 100 µM in the experiment with DMS 114 small cell lung; 65.3 µM with HOP-18 NSCLC; greater than 100 µM in the experiment on KM20L2 colon; greater than 100 µM in the experiment with LXFL 529 NSCLC; greater than 100 µM in the experiment on RXF-631 renal. In the experiment with XF 498 CNS, the TGI was greater than 100 µM.
For `O=C1[C@@H]2C(c3ccccc3F)=NO[C@@H]2C(=O)N1c1ccc(Cc2ccc(N3C(=O)[C@H]4C(c5ccccc5F)=NO[C@H]4C3=O)cc2)cc1`, the TGI in the experiment with DLD-1 colon, in the experiment with DMS 114 small cell lung, with HOP-18 NSCLC, in the experiment with KM20L2 colon, in the experiment on LXFL 529 NSCLC and with RXF-631 renal was greater than 100 µM each time. Besides, the TGI with XF 498 CNS is greater than 100 µM.
In the case of `O=C(O)[C@H](NS(=O)(=O)c1ccc([N+](=O)[O-])cc1)c1ccccc1`, the TGI in the experiment on DLD-1 colon, in the experiment on DMS 114 small cell lung, in the experiment on HOP-18 NSCLC, with KM20L2 colon, in the experiment with LXFL 529 NSCLC and in the experiment with RXF-631 renal was greater than 100 µM in each case. Further, the TGI with XF 498 CNS is greater than 100 µM.
As for `C/C(N=NC(=S)N(C)C)=C1\C=CC=CN1O`, the TGI with DLD-1 colon was greater than 21.2 µM; in the experiment on HOP-18 NSCLC it was greater than 100 µM; with KM20L2 colon, greater than 100 µM; in the experiment with LXFL 529 NSCLC, greater than 100 µM; in the experiment on MDA-N, greater than 100 µM; in the experiment on RXF-631 renal it was greater than 100 µM. In addition, in the experiment on T-47D breast, the TGI was greater than 100 µM.
As for `O=C1CCC(O)=C1N=Nc1ccccc1`, the TGI in the experiment on DLD-1 colon, in the experiment with DMS 114 small cell lung, in the experiment with HOP-18 NSCLC and in the experiment on RXF-631 renal was greater than 100 µM each time.
On to `Nc1ccc2cc3ccc(N)cc3nc2c1`, for which the TGI was 10.5 µM with DLD-1 colon; 3.03 µM with DMS 114 small cell lung; 8.41 µM with HOP-18 NSCLC; 6.61 µM in the experiment on KM20L2 colon; 10.3 µM in the experiment on LXFL 529 NSCLC; 3.79 µM and 2.77 µM in the experiment on MDA-N. Moreover, the TGI in the experiment with RXF-631 renal was 4.41 µM; with T-47D breast it was 14.9 µM and 9.61 µM and 8.53 µM; with XF 498 CNS, 5.8 µM.
Turning to `C=C1C(=O)OC2/C=C(\COC(C)=O)CCC(OC(C)=O)C3=CC(OC3=O)C12` (stereo not drawn), the TGI in the experiment with DLD-1 colon was 9.92 µM; in the experiment on DMS 114 small cell lung it was 3.18 µM; with KM20L2 colon, 14.3 µM; with LXFL 529 NSCLC, 3.56 µM; in the experiment with RXF-631 renal, 48 µM; in the experiment with T-47D breast it was 53.4 µM. For the same compound, the TGI with XF 498 CNS worked out at 5.33 µM.
On to `S=C1OC2CCCC[C@H]2O1` (stereo partly drawn), for which the TGI in the experiment with DLD-1 colon, with DMS 114 small cell lung, with HOP-18 NSCLC, with KM20L2 colon, in the experiment on LXFL 529 NSCLC and with RXF-631 renal was greater than 100 µM each time. Also, the TGI in the experiment on XF 498 CNS is greater than 100 µM.
Consider `N#Cc1cccnc1Cl`, for which the TGI with DLD-1 colon, in the experiment with DMS 114 small cell lung, with HOP-18 NSCLC, with KM20L2 colon, with LXFL 529 NSCLC and in the experiment with RXF-631 renal was greater than 100 µM each time. Also, the TGI in the experiment on XF 498 CNS was greater than 100 µM.
Take `O=C1CC2CCCC23CC2(CCN13)OCCO2` (stereo not drawn): the TGI in the experiment on DLD-1 colon, with DMS 114 small cell lung, with HOP-18 NSCLC, in the experiment on KM20L2 colon, in the experiment on LXFL 529 NSCLC and in the experiment with RXF-631 renal was greater than 100 µM each time. This compound registered a TGI in the experiment on XF 498 CNS greater than 100 µM.
Turning to `O=C(NCO)NCOCn1c(=O)n(CO)c(=O)n(CO)c1=O`, the TGI with DLD-1 colon is 64.4 µM; with DMS 114 small cell lung, 99.3 µM; in the experiment with HOP-18 NSCLC, greater than 100 µM; in the experiment with KM20L2 colon, greater than 94.9 µM; in the experiment with LXFL 529 NSCLC, 42.8 µM; with RXF-631 renal, greater than 100 µM. In addition, in the experiment on XF 498 CNS, the TGI amounted to 55.5 µM.
As for `O=C(c1ccccc1)C1OC12C(=O)Nc1ccccc12` (stereo not drawn), the TGI with DLD-1 colon was greater than 100 µM; in the experiment with DMS 114 small cell lung it was 88.8 µM; with KM20L2 colon, 66.8 µM; in the experiment with LXFL 529 NSCLC, 30.3 µM; in the experiment with RXF-631 renal, greater than 100 µM; with XF 498 CNS, greater than 100 µM.
For the compound `CCCSc1nc(COC(=O)NC)c(COC(=O)NC)n1C`, the TGI was greater than 100 µM in the experiment on DLD-1 colon; greater than 100 µM with DMS 114 small cell lung; greater than 100 µM with HOP-18 NSCLC; greater than 100 µM in the experiment on KM20L2 colon; greater than 100 µM with LXFL 529 NSCLC; 54.8 µM in the experiment with P388 leukemia. Besides, the TGI is 61.8 µM in the experiment with P388/ADR leukemia, greater than 100 µM in the experiment with SN12K1 renal and greater than 100 µM in the experiment on XF 498 CNS.
As for `CCOC(=O)NC(=O)c1cn(CCCOC(=O)CCCCCCCCCCC(=O)OCCCn2cc(C(=O)NC(=O)OCC)c(=O)[nH]c2=O)c(=O)[nH]c1=O`, the TGI with DLD-1 colon, in the experiment with HOP-18 NSCLC, in the experiment on KM20L2 colon, in the experiment on LXFL 529 NSCLC, in the experiment with RXF-631 renal and with XF 498 CNS was greater than 100 µM each time.
